“And” between values parts separate entries of the source, which are not always exact repeats. Identical values can stand only once.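 A five-concentration, 48-hour dose response in 96-well plates underlies each endpoint, interpolated linearly between surrounding concentrations. The concentration for 50% growth inhibition is given as GI50. TGI marks complete inhibition of growth.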
Tests used:
Assay in all cases: NCI anticancer screen, dose series, 48 h
CAKI-1 renal = system: CAKI-1 renal
PC-3 prostate = system: PC-3 prostate
KM12 colon = system: KM12 colon
LOX IMVI melanoma = system: LOX IMVI melanoma
SK-MEL-28 melanoma = system: SK-MEL-28 melanoma
U251 CNS = system: U251 CNS
BT-549 breast = system: BT-549 breast
HL-60(TB) leukemia = system: HL-60(TB) leukemia
OVCAR-4 ovarian = system: OVCAR-4 ovarian
MALME-3M melanoma = system: MALME-3M melanoma

Compound | GI50 (CAKI-1 renal) | TGI (CAKI-1 renal) | GI50 (PC-3 prostate) | TGI (PC-3 prostate) | GI50 (KM12 colon) | TGI (KM12 colon) | GI50 (LOX IMVI melanoma) | TGI (LOX IMVI melanoma) | GI50 (SK-MEL-28 melanoma) | TGI (SK-MEL-28 melanoma) | GI50 (U251 CNS) | TGI (U251 CNS) | GI50 (BT-549 breast) | TGI (BT-549 breast) | GI50 (HL-60(TB) leukemia) | TGI (HL-60(TB) leukemia) | GI50 (OVCAR-4 ovarian) | TGI (OVCAR-4 ovarian) | GI50 (MALME-3M melanoma) | TGI (MALME-3M melanoma)
CC[C@]12C=CCN3CC[C@@]4(c5ccc(OC)cc5N(C)[C@H]4[C@@](O)(C(=O)OC)[C@@H]1OC(=O)CCC[P+](c1ccccc1)(c1ccccc1)c1ccccc1)[C@@H]32 | 4.67 µM and 2.8 µM | 12.3 µM and 10.4 µM | 0.224 µM and 0.345 µM | 5.13 µM and 2.59 µM | 0.274 µM and 0.527 µM | 1.06 µM and 1.8 µM | 0.923 µM and 0.662 µM | 6 µM and 2.18 µM | 0.274 µM and 0.442 µM | 1.06 µM and 1.67 µM | 0.487 µM and 0.336 µM | 6.59 µM and 2.64 µM | 0.284 µM and 0.234 µM | 1.86 µM and 1.6 µM | 0.203 µM and 0.195 µM | 0.76 µM and 0.518 µM | 0.317 µM and 0.322 µM | 6.1 µM and 2.32 µM | 0.338 µM and 0.493 µM | 1.37 µM and 1.78 µM
Cn1c(=O)c2c(nc(Nc3cc(=O)[nH]c(=O)[nH]3)n2Cc2ccccc2)n(C)c1=O | 50.1 µM | > 100 µM | > 100 µM | > 100 µM | > 100 µM | > 100 µM | > 100 µM | > 100 µM | > 100 µM | > 100 µM | > 100 µM | > 100 µM | 69.4 µM | > 100 µM | > 100 µM | > 100 µM | 46.9 µM | > 100 µM | > 100 µM | > 100 µM
COc1cc(C(=O)c2cc(C)c3[nH]c4ccc(Cl)cc4c3c2C)cc(OC)c1OC | 0.0521 µM | 12.5 µM | 0.146 µM | 13.7 µM | 0.0531 µM | 2.4 µM | 0.0384 µM | 5.52 µM | 1.44 µM | 17 µM | 0.0425 µM | 15 µM | 0.0423 µM | 4.55 µM | 0.0279 µM | 0.0901 µM | 1.16 µM | 27.2 µM | 0.0791 µM | 15.3 µM
CC(C)(C)C(=O)OCOP(=O)(OCOC(=O)C(C)(C)C)C1CCCN(O)C1=O (stereo not given) | 0.324 µM | > 100 µM | 2.02 µM | > 100 µM | 0.443 µM | 13.3 µM | 0.465 µM | 12.3 µM | 0.321 µM | 1.14 µM | 0.342 µM | 5.22 µM | 0.313 µM | 1.26 µM | 0.538 µM | 3.53 µM | 0.508 µM | 59.7 µM | 0.425 µM | 5.81 µM
O=C(CCCn1ccnc1[N+](=O)[O-])NCCn1cncc1[N+](=O)[O-] | – | > 100 µM | – | > 100 µM | – | > 100 µM | – | > 100 µM | – | > 100 µM | – | > 100 µM | – | > 100 µM | – | > 100 µM | – | > 100 µM | – | > 100 µM
Oc1ccc(Cl)cc1Cc1cc(Cl)cc(Cl)c1O | 7.86 µM | 35.9 µM | 3.59 µM | 15.5 µM | 4.34 µM | 19.8 µM | 4.83 µM | 19.2 µM | 4.83 µM | 31.7 µM | 5.12 µM | 50.9 µM | 3.32 µM | 11.9 µM | 4.64 µM | 28.6 µM | 3.48 µM | 23.3 µM | 3.68 µM | 18.7 µM
COc1ccc(C(=O)c2cc(OC)c(C)c(OC)c2)cc1OC(=O)CCl | 0.591 µM | 77.7 µM | 0.275 µM | > 100 µM | 0.13 µM | > 44.2 µM | 0.244 µM | 19.6 µM | 0.732 µM | 40.4 µM | 0.415 µM | > 45.3 µM | 0.395 µM | 10.3 µM | 0.066 µM | 0.193 µM | 1.22 µM | > 100 µM | 0.572 µM | 48.1 µM
O=c1n(CC2CO2)c(=O)n(CC2CO2)c(=O)n1CC1CO1 (stereo not given) | 0.81 µM | 52.1 µM and 64.9 µM | 20.3 µM | 75.4 µM and 92.2 µM and > 100 µM | 21.3 µM | 112 µM and > 100 µM | 12.3 µM and 6.12 µM | 47.5 µM and 102 µM and > 100 µM | 22.7 µM | 139 µM and > 100 µM | 5.47 µM | 32.4 µM and 67.2 µM and 32.2 µM | 13.6 µM | 67 µM and > 100 µM | 5.21 µM and 2.39 µM | 28.1 µM and > 100 µM | 25.9 µM and 23 µM | 112 µM and > 100 µM | 17.1 µM and 43.2 µM | 44.3 µM and 70.2 µM and > 100 µM
CC(=O)OC1Oc2ccccc2-c2oc(=O)c(-c3cc(=O)oc4cc(O)ccc34)cc21 (stereo not given) | 21.7 µM | 83.7 µM | 16.2 µM | 55.6 µM | 19.8 µM | 46.4 µM | 17.8 µM | 37.5 µM | 34.5 µM | > 100 µM | 24 µM | 65.3 µM | 15.3 µM | 41.4 µM | 21.8 µM | > 100 µM | 25 µM | > 100 µM | 20.9 µM | 59.2 µM
O=C(Nc1ccc(OS(=O)(=O)c2ccccc2)cc1)C12CC3CC(CC(C3)C1)C2 | 7.08 µM | > 100 µM | 2.9 µM | > 100 µM | 2.1 µM | > 100 µM | 4.38 µM | > 100 µM | > 100 µM | > 100 µM | 4.81 µM | > 100 µM | 3.24 µM | > 100 µM | 2.68 µM | > 100 µM | 8.38 µM | > 100 µM | > 100 µM | > 100 µM
COc1ccc2c(c1)CCC1C2CC[C@@]2(C)C1CC1=CC(COC(C)=O)C3C(=O)c4ccccc4C(=O)C3C12 (stereo not given in full) | > 100 µM | > 100 µM | 48.4 µM | > 100 µM | > 100 µM | > 100 µM | > 100 µM | > 100 µM | > 100 µM | > 100 µM | > 100 µM | > 100 µM | > 100 µM | > 100 µM | 76.3 µM | > 100 µM | > 100 µM | > 100 µM | > 100 µM | > 100 µM
Cc1nnc(S(=O)(=O)c2ccc(N=Nc3c(N)nc(N)nc3N)cc2)s1 | – | > 100 µM | – | > 100 µM | – | > 100 µM | – | > 100 µM | – | > 100 µM | – | > 100 µM | – | > 100 µM | – | 97.8 µM | – | > 100 µM | – | > 100 µM
CNCCNc1c2c(c(NCCNC)c3c(CN(C)C)c[nH]c13)C(=O)c1ccccc1C2=O | 4.71 µM | 16.8 µM | 0.969 µM | 5.64 µM | 2.8 µM | 9.5 µM | 2.35 µM | 6.04 µM | 9.59 µM | 26.4 µM | 2.95 µM | 13.8 µM | 6.04 µM | 14.4 µM | 4.14 µM | > 100 µM | 4.79 µM | 17.5 µM | 6.73 µM | 15.5 µM

From PubChem BioAssay (NCI)
